# Measurements taken from patent US20200370087A1, “METHOD FOR DETERMINING MICROBIAL SUSCEPTIBILITY TO ANTIBIOTIC AGENTS” (Ascilion AB, priority 2017, published 2020).
# Legend:
# [1] = test system: Enterococcus faecalis (ATCC 29212); assay: Glucose consumption susceptibility test, blood culture diluted in MHB with glucose (Example 1); assay type: cell-based; set-up: glucose concentration, t = 0 / glucose concentration, t = 60 / glucose concentration, t = 120 / glucose concentration, t = 180 / glucose concentration, t = 240 / dC/dT (rate of change in glucose concentration): unit not given here; conditions: for F = the rate of change in glucose concentration in relation to the reference / dC/dT (rate of change in glucose concentration) / glucose concentration, t = 0 / glucose concentration, t = 60 / glucose concentration, t = 120 / glucose concentration, t = 180 / glucose concentration, t = 240: E. faecalis; for glucose concentration, t = 0: 0 minutes; for glucose concentration, t = 60: 60 minutes; for glucose concentration, t = 120: 120 minutes; for glucose concentration, t = 180: 180 minutes; for glucose concentration, t = 240: 240 minutes
# How it was run: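 Glucose was measured by glucometer at 0, 60, 120, 180 and 240 min after 1:100 dilution of positive blood culture in cation-adjusted MHB containing 1.0 mg/mL glucose.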
# [2] = test system: E. coli 17; assay: Qualitative glucose consumption test, bacteria from plated cultures (Example 2, Table 6); assay type: cell-based; conditions: E. coli 17 from plated culture, antibiotic 256 μg/mL
# Experimental: (§1) If the susceptibility score is a qualitative susceptibility score classifying the microorganism as “susceptible”, or “non-susceptible” to an antibiotic agent the answer could be given in as little as 1 hour. Bacteria from plated cultures were suspended in cation adjusted Mueller-Hinton broth (SVA, Uppsala, Sweden) supplemented with glucose. Consequently, the concentration of microorgansims was typically two orders of magnitude higher as compared to Example 1. […] The tested microorganisms was one strain of E. faecium, two strains of E. coli and one S. aureus.
# [3] = test system: E. coli ATCC 25922; assay: as above; assay type: cell-based; conditions: E. coli ATCC 25922 from plated culture, antibiotic 256 μg/mL
# Experimental: as §1
# [4] = test system: E. faecium; assay: as above; assay type: cell-based; conditions: E. faecium from plated culture, antibiotic 256 μg/mL
# Experimental: as §1
# [5] = test system: S. aureus; assay: as above; assay type: cell-based; conditions: S. aureus from plated culture, antibiotic 256 μg/mL
# Experimental: If the susceptibility score is a qualitative susceptibility score classifying the microorganism as “susceptible”, or “non-susceptible” to an antibiotic agent the answer could be given in as little as 1 hour.
# Bacteria from plated cultures were suspended in cation adjusted Mueller-Hinton broth (SVA, Uppsala, Sweden) supplemented with glucose. Consequently, the concentration of microorgansims was typically two orders of magnitude higher as compared to Example 1. […] The tested microorganisms was one strain of E. faecium, two strains of E. coli and one S. aureus.
# [6] = test system: E. faecium; assay: Qualitative glucose consumption test, directly from positive BC-bottles (Example 2, Table 7); assay type: cell-based; conditions: E. faecium from positive BC-bottle, antibiotic 256 μg/mL
# Experimental: With slightly lower microbe concentrations e.g. directly from positive BC-bottles (^˜10^9 CFU/ml) the results are shown at least within 2 hours, where E. coli ATCC 25922 is classified as susceptible and E. faecium is non-susceptible.
# [7] = test system: E. coli ATCC 25922; assay: as above; assay type: cell-based; conditions: E. coli ATCC 25922 from positive BC-bottle, antibiotic 256 μg/mL
# [8] = test system: Escherichia coli ATCC 25922; conditions: E.coli, cited from earlier work
# [9] = test system: Enterococcus faecalis ATCC 29212; conditions: E.faecalis, cited from earlier work
# [10] = range obtained by EUCAST from ISO 20776-1: 2006
# [11] = reference value, Mueller-Hinton agar, incubation 18±2 h, N/A = not susceptible
substance,measurement,setting,value
gentamicin,F = the rate of change in glucose concentration in relation to the reference,[1]; antibiotic 0.25 μg/mL,144%
same,dC/dT (rate of change in glucose concentration),[1]; antibiotic 0.25 μg/mL,52
same,"glucose concentration, t = 0",[1]; antibiotic 0.25 μg/mL,142
same,"glucose concentration, t = 60",[1]; antibiotic 0.25 μg/mL,156
same,"glucose concentration, t = 120",[1]; antibiotic 0.25 μg/mL,143
same,"glucose concentration, t = 180",[1]; antibiotic 0.25 μg/mL,87
same,F = the rate of change in glucose concentration in relation to the reference,[1]; antibiotic 0.5 μg/mL,148%
same,dC/dT (rate of change in glucose concentration),[1]; antibiotic 0.5 μg/mL,53
same,"glucose concentration, t = 0",[1]; antibiotic 0.5 μg/mL,146
same,"glucose concentration, t = 60",[1]; antibiotic 0.5 μg/mL,160
same,"glucose concentration, t = 120",[1]; antibiotic 0.5 μg/mL,138
same,"glucose concentration, t = 180",[1]; antibiotic 0.5 μg/mL,97
same,F = the rate of change in glucose concentration in relation to the reference,[1]; antibiotic 1 μg/mL,106%
same,dC/dT (rate of change in glucose concentration),[1]; antibiotic 1 μg/mL,38
same,"glucose concentration, t = 0",[1]; antibiotic 1 μg/mL,145
same,"glucose concentration, t = 60",[1]; antibiotic 1 μg/mL,150
same,"glucose concentration, t = 120",[1]; antibiotic 1 μg/mL,138
same,"glucose concentration, t = 180",[1]; antibiotic 1 μg/mL,100
same,"glucose concentration, t = 240",[1]; antibiotic 1 μg/mL,36
same,F = the rate of change in glucose concentration in relation to the reference,[1]; antibiotic 2 μg/mL,75%
same,dC/dT (rate of change in glucose concentration),[1]; antibiotic 2 μg/mL,27
same,"glucose concentration, t = 0",[1]; antibiotic 2 μg/mL,147
same,"glucose concentration, t = 60",[1]; antibiotic 2 μg/mL,156
same,"glucose concentration, t = 120",[1]; antibiotic 2 μg/mL,143
same,"glucose concentration, t = 180",[1]; antibiotic 2 μg/mL,110
same,"glucose concentration, t = 240",[1]; antibiotic 2 μg/mL,75
same,F = the rate of change in glucose concentration in relation to the reference,[1]; antibiotic 4 μg/mL,46%
same,dC/dT (rate of change in glucose concentration),[1]; antibiotic 4 μg/mL,17
same,"glucose concentration, t = 0",[1]; antibiotic 4 μg/mL,147
same,"glucose concentration, t = 60",[1]; antibiotic 4 μg/mL,154
same,"glucose concentration, t = 120",[1]; antibiotic 4 μg/mL,151
same,"glucose concentration, t = 180",[1]; antibiotic 4 μg/mL,118
same,"glucose concentration, t = 240",[1]; antibiotic 4 μg/mL,104
same,F = the rate of change in glucose concentration in relation to the reference,[1]; antibiotic 8 μg/mL,14%
same,dC/dT (rate of change in glucose concentration),[1]; antibiotic 8 μg/mL,5
same,"glucose concentration, t = 0",[1]; antibiotic 8 μg/mL,143
same,"glucose concentration, t = 60",[1]; antibiotic 8 μg/mL,155
same,"glucose concentration, t = 120",[1]; antibiotic 8 μg/mL,134
same,"glucose concentration, t = 180",[1]; antibiotic 8 μg/mL,136
same,"glucose concentration, t = 240",[1]; antibiotic 8 μg/mL,140
same,F = the rate of change in glucose concentration in relation to the reference,[1]; antibiotic 16 μg/mL,18%
same,dC/dT (rate of change in glucose concentration),[1]; antibiotic 16 μg/mL,6
same,"glucose concentration, t = 0",[1]; antibiotic 16 μg/mL,147
same,"glucose concentration, t = 60",[1]; antibiotic 16 μg/mL,160
same,"glucose concentration, t = 120",[1]; antibiotic 16 μg/mL,152
same,"glucose concentration, t = 180",[1]; antibiotic 16 μg/mL,155
same,F = the rate of change in glucose concentration in relation to the reference,[1]; antibiotic 32 μg/mL,3%
same,dC/dT (rate of change in glucose concentration),[1]; antibiotic 32 μg/mL,1
same,"glucose concentration, t = 0",[1]; antibiotic 32 μg/mL,143
same,"glucose concentration, t = 60",[1]; antibiotic 32 μg/mL,151
same,"glucose concentration, t = 180",[1]; antibiotic 32 μg/mL,142
same,"glucose concentration, t = 240",[1]; antibiotic 32 μg/mL,148
same,"MIC, Measured","[1]; E.faecalis, 80% threshold of reference rate of change, 60 to 180 minutes, N/A = not susceptible, no MIC value can be calculated",2 µg/mL
same,qualitative susceptibility score,[2],susceptible
same,"glucose concentration, t = 15",[2]; t = 15,131
same,"glucose concentration, t = 30",[2]; t = 30,126
same,"glucose concentration, t = 45",[2]; t = 45,123
same,qualitative susceptibility score,[3],susceptible
same,"glucose concentration, t = 15",[3]; t = 15,156
same,"glucose concentration, t = 30",[3]; t = 30,155
same,"glucose concentration, t = 45",[3]; t = 45,136
same,qualitative susceptibility score,[4],non-susceptible
same,"glucose concentration, t = 0",[4]; t = 0,79
same,"glucose concentration, t = 15",[4]; t = 15,47
same,qualitative susceptibility score,[5],susceptible
same,"glucose concentration, t = 15",[5]; t = 15,137
same,"glucose concentration, t = 30",[5]; t = 30,139
same,"glucose concentration, t = 45",[5]; t = 45,131
same,"glucose concentration, t = 0",[6]; t = 0,144
same,"glucose concentration, t = 45",[6]; t = 45,105
same,"glucose concentration, t = 60",[6]; t = 60,77
same,"glucose concentration, t = 75",[6]; t = 75,47
same,qualitative susceptibility score,[6]; within 2 hours,non-susceptible
same,"glucose concentration, t = 0",[7]; t = 0,145
same,"glucose concentration, t = 45",[7]; t = 45,155
same,"glucose concentration, t = 60",[7]; t = 60,151
same,"glucose concentration, t = 90",[7]; t = 90,140
same,"glucose concentration, t = 105",[7]; t = 105,135
same,qualitative susceptibility score,[7]; within 2 hours,susceptible
same,"MIC, EUCAST, range in parentheses",[8]; [10],(0.25-1) ug/mL
same,"MIC, EUCAST",[8]; [11],0.5 µg/mL
same,"MIC, EUCAST, range in parentheses",[9]; [10],(4-16) ug/mL
same,"MIC, EUCAST",[9]; [11],8 µg/mL
